In publication PMC8165744, “Identification of an Alternative Glycyrrhizin Metabolite Causing Liquorice-Induced Pseudohyperaldosteronism and the Development of ELISA System to Detect the Predictive Biomarker” (Frontiers in Pharmacology, 2021):

Key:
anti-3MGA-mAb = test: competitive ELISA using anti-3MGA-mAb; type: binding; conditions: competitive ELISA in aqueous solution, 3MGA calibrated to 100%
Description: ELISA System Using anti-3MGA-mAb
An ELISA system to measure the cross-reactivity of compounds 3 and 4 by using 3MGA-HSA-conjugate and anti-3MGA-mAb was used according to the protocol in our previous study ([Ishiuchi et al., 2019]). To measure the concentration of 3 in human serum samples using the system ELISA, 3 was dissolved in normal human serum (Sigma) to prepare standard solutions (16 nM–2.0 µM) and the samples or standard solutions (each 10 µl) and ethanol (40 µl) were well mixed and centrifuged (1.2 × 10^4 × g for 7 min). The supernatant was dried up under nitrogen flow at 40°C overnight, and the residue was dissolved in Can Get Signal® Solution 1 (Toyobo Co., Ltd: Osaka, Japan) (50 µl). […] When the observed values were more than 400 nM, the deproteinized serum samples were further diluted with Can Get Signal® Solution 1 for two or four times and analyzed again to observe values from 15.6 to 400 nM.
FIGURE 4 Development of enzyme-linked immunosorbent assay (ELISA) system to measure concentrations of 3 in human serum samples using anti-18β-glycyrrhetyl-3-O-glucuronide (3MGA)-monoclonal antibody (mAb). […] Standard lines between absorbance and concentrations of compound 3 are shown (D) Accuracy of ELISA system in measuring concentrations of 3 in human serum samples using anti-3MGA-mAb. Human serum samples were deproteinized, and concentration of 3 was measured using ELISA system. […]

human OAT3 = target: T1, human OAT3 (Homo sapiens, UniProt Q8TCC7); test: uptake into HEK293 cells transfected with OAT3; type: in vitro ADME; conditions: HEK293, EHBR plasma, 37°C, 15 min
T1 construct: expressed in transfected cells; host or cells: HEK293 cells, pCI-neo vector
T1 sequence (Q8TCC7 1-542): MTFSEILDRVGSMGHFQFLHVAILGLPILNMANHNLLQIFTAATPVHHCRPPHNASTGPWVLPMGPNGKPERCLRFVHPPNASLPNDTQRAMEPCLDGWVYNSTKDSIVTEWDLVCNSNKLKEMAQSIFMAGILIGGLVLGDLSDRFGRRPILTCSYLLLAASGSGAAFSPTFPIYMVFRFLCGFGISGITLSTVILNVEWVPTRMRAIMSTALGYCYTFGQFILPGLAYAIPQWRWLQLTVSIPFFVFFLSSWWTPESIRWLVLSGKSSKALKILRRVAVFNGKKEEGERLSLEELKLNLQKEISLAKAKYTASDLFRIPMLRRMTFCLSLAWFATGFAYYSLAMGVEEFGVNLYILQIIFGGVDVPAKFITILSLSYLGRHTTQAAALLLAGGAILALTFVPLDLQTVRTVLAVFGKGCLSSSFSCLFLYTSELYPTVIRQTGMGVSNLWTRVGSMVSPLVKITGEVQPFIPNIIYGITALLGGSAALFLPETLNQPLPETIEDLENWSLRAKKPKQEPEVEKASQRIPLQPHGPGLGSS
From the text: Uptake of Compound 4 by Rat Kidney Slices and Cells Expressing OAT1 and 3
For the uptake study of 4 into rat kidney slices, we used the samples obtained in our previous study ([Ishiuchi et al., 2019]). For the uptake study of 4 into the cells transiently expressing OAT1 and OAT3, we used the same protocol as in our previous study ([Makino et al., 2012]). cDNAs encoding human OAT1 and OAT3 inserted into pGH19 were generously supplied by Prof. Mitsuru Sugawara (Hokkaido University, Sapporo, Japan), and then subcloned into a pCI-neo mammalian expression vector (Promega, Madison, WI, United States). We used the same pooled plasma of male EHBRs orally treated with GA for 12 h used in our previous study ([Ishiuchi et al., 2019]).
FIGURE 2 Inhibitory effects of compound 4 on type-2 11β-hydroxysteroid dehydrogenase (11β-HSD2) using rat kidney microsome (A), and the uptake of 4 into rat kidney slices (B) or into HEK293 cells transfected with organic anion transporter (OAT) 1 (C) or OAT3 (D). […] Then, the amount of [^3H] cortisol was measured. […] Concentrations of 4 in kidney slice homogenates were measured using liquid chromatography-tandem mass spectrometry (LC-MS/MS). **p < 0.01 vs 4°C group using Student’s t-test (C) Male EHBRs were orally treated with GA (200 mg/kg) and their plasma samples were collected […] after treatment. […] Then, concentrations of 4 in cells were measured using LC-MS/MS. […]

uptake into cells expressing OAT3 vs mock cells (human OAT3): significantly higher
SMILES: CC1(C)[C@@H](OS(=O)(=O)O)CC[C@]2(C)[C@H]3C(=O)C=C4[C@@H]5C[C@@](C)(C(=O)O[C@@H]6O[C@H](C(=O)O)[C@@H](O)[C@H](O)[C@H]6O)CC[C@]5(C)CC[C@@]4(C)[C@]3(C)CC[C@@H]12 [Compound 4, 18β-glycyrrhetyl-3-O-sulfate-30-O-glucuronide]
cross-reactivity to anti-3MGA-mAb (anti-3MGA-mAb): 40%
